The text below walks through data of patent US20080017207A1, “Reduction of the Deleterious Effects of Tobacco Smoking by the Induction of Phase 2 Enzymes by Nerf2” (SAVIPU PHARMACEUTICALS, priority 2006, published 2008).

The subject of series [1] is benzo[a]pyrene-induced transformation of RTE cells. Kind of series: rat tracheal epithelial (RTE) cell focus inhibition assay. The format is cell-based. How it is done:
(§1) The rat tracheal epithelial (RTE) cell focus inhibition assay was used to identify potential chemopreventive activity of tanshinone IIA. Tanshinone IIA was evaluated for its ability to inhibit benzo[a]pyrene-induced transformation of RTE cells. Tracheal epithelial cells were isolated from 8-12 week-old male Fisher 344 rats and plated on collagen coated dishes. Initially, a nontoxic concentration of tanshinone IIA was determined by treating RTE cells with a range of 1.5 nM to 3000 nM of tanshinone IIA. […] About 10% cells survived at a concentration of 1500 nM. Freshly isolated RTE cells were exposed to benzo[a]pyrene alone or in combination with tanshinone IIA. Benzo[a]pyrene was washed out after an exposure of 24 h. The maximal non-toxic concentration and four half log concentrations of tanshinone IIA (300 nM to 3 nM) were used for the chemopreventive assay. After 30 days in culture, transformed foci were scored and inhibition was quantitated. […] A positive control of retinoic acid inhibited the transformation frequency by 50% at 1 nM.

The next series concerns RTE cells. Kind of series: toxicity of tanshinone IIA to RTE cells. It is filed as cell-based, rat. Here is the method: as §1
In a further series the test system is NF-κB. The conditions noted are these: as disclosed in U.S. Application Ser. No. 60/779,142; cited from earlier work.
Series [2] relates to benzo[a]pyrene-induced gastric neoplasia. Particulars: cited from earlier work.

Bounds are passed on as bounds.

For the compound `Cc1coc2c1C(=O)C(=O)c1c-2ccc2c1CCCC2(C)C` [Tanshinone IIA], the “prevention of benzo[a]pyrene-induced transformation of rat tracheal epithelial cells” value in series [1] (3 nM) is recorded as “totally prevented”. The “inhibition of transformation frequency” value in series [1] (each dose level, 300 nM to 3 nM, foci scored after 30 days in culture) is “complete inhibition”. Also, the cells survived entry in the series with RTE cells (at 1500 nM) is reported as “About 10%”. The nontoxic concentration in the series with RTE cells (range tested 1.5 nM to 3000 nM) is listed as not above 150 nM. Moreover, in the series with RTE cells (very low concentrations (3 nM)), the “toxicity to the cells” value is recorded as “nontoxic”. The “inhibition of NF-κB” value in the series with NF-κB is “demonstrated inhibition”.
By inhibition is commonly meant how much of the control response was suppressed. With `CC1=C(/C=C/C(C)=C/C=C/C(C)=C/C(=O)O)C(C)(C)CCC1` [retinoic acid, reference compound], the inhibition at 0.001 µM in series [1] (Rattus norvegicus, at 1 nM, positive control, read-out: inhibition of transformation frequency) is 50%.
Regarding `Cc1c(-c2cnccn2)ssc1=S` [Oltipraz, 4-methyl-5-[2-pyrazinyl]-1,2-dithiole-3-thione], in series [2] (nrf2-deficient mice), the tumor burden entry is recorded as “no effect”. Also, in series [2] (wild-type mice), the “multiplicity of gastric neoplasia” value is listed as “significantly reduced”.
